Measurements from the supplement of paper PMC10307832.

Tests used:
Test in all cases: relative viability (nuclei count vs DMSO), 5 days (fraction); higher = more cells survive
Tozasertib + Bortezomib = compound: Cc1cc(Nc2cc(N3CCN(C)CC3)nc(Sc3ccc(NC(=O)C4CC4)cc3)n2)n[nH]1 [Tozasertib] + CC(C)C[C@H](NC(=O)[C@H](Cc1ccccc1)NC(=O)c1cnccn1)B(O)O [Bortezomib] (partner 0.002 µM)
Outline: (§1)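 The day after seeding in 1536-well plates, lung cancer cell lines were treated by pin tool with a single drug, or with a fixed anchor-drug dose together with five library-drug doses (not always all listed) in √10 steps. After 5 days, a combined fix-and-stain solution (final 0.05% Triton X-100, 1% formaldehyde, 1 ug/ml Hoechst) was added. Nuclei counted on 4× images gave relative viability as treated counts over vehicle counts, reported as the median of duplicate plates.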

Tozasertib + Trametinib = compound: Cc1cc(Nc2cc(N3CCN(C)CC3)nc(Sc3ccc(NC(=O)C4CC4)cc3)n2)n[nH]1 [Tozasertib] + CC(=O)Nc1cccc(-n2c(=O)n(C3CC3)c(=O)c3c(Nc4ccc(I)cc4F)n(C)c(=O)c(C)c32)c1 [Trametinib] (partner 0.02 µM)
Outline: as §1

Tozasertib + Dasatinib = compound: Cc1cc(Nc2cc(N3CCN(C)CC3)nc(Sc3ccc(NC(=O)C4CC4)cc3)n2)n[nH]1 [Tozasertib] + Cc1nc(Nc2ncc(C(=O)Nc3c(C)cccc3Cl)s2)cc(N2CCN(CCO)CC2)n1 [Dasatinib] (partner 0.075 µM)
Outline: as §1

Tozasertib + AZD7762 = compound: Cc1cc(Nc2cc(N3CCN(C)CC3)nc(Sc3ccc(NC(=O)C4CC4)cc3)n2)n[nH]1 [Tozasertib] + NC(=O)Nc1cc(-c2cccc(F)c2)sc1C(=O)N[C@H]1CCCNC1 [AZD7762] (partner 0.2 µM)
Outline: as §1

Tozasertib + Olaparib = compound: Cc1cc(Nc2cc(N3CCN(C)CC3)nc(Sc3ccc(NC(=O)C4CC4)cc3)n2)n[nH]1 [Tozasertib] + O=C(c1cc(Cc2n[nH]c(=O)c3ccccc23)ccc1F)N1CCN(C(=O)C2CC2)CC1 [Olaparib] (partner 8 µM)
Outline: as §1

Cell Line	relative viability (Tozasertib + Bortezomib; first compound 0.004 µM)	relative viability (Tozasertib + Bortezomib; first compound 0.01265 µM)	relative viability (Tozasertib + Bortezomib; first compound 0.04 µM)	relative viability (Tozasertib + Trametinib; first compound 0.004 µM)	relative viability (Tozasertib + Trametinib; first compound 0.01265 µM)	relative viability (Tozasertib + Trametinib; first compound 0.04 µM)	relative viability (Tozasertib + Trametinib; first compound 0.1265 µM)	relative viability (Tozasertib + Dasatinib; first compound 0.004 µM)	relative viability (Tozasertib + Dasatinib; first compound 0.01265 µM)	relative viability (Tozasertib + Dasatinib; first compound 0.04 µM)	relative viability (Tozasertib + Dasatinib; first compound 0.1265 µM)	relative viability (Tozasertib + AZD7762; first compound 0.004 µM)	relative viability (Tozasertib + AZD7762; first compound 0.01265 µM)	relative viability (Tozasertib + AZD7762; first compound 0.04 µM)	relative viability (Tozasertib + AZD7762; first compound 0.1265 µM)	relative viability (Tozasertib + Olaparib; first compound 0.004 µM)	relative viability (Tozasertib + Olaparib; first compound 0.01265 µM)	relative viability (Tozasertib + Olaparib; first compound 0.04 µM)	relative viability (Tozasertib + Olaparib; first compound 0.1265 µM)	relative viability (Tozasertib + Bortezomib; first compound 0.1265 µM)
201T	1.1	1.06	1.07	0.707	0.705	0.759	0.71	0.593	0.503	0.714	0.555	0.549	0.63	0.581	0.75	0.846	0.838	0.849	0.814	
LCLC-97TM1	0.933	0.271	0.624	0.211	0.22	0.239	0.17	0.809	0.695	0.948	0.783	0.166	0.194	0.164	0.211	0.53	0.381	0.335	0.231	0.106
NCI-H460	1.13	0.949	1.46	0.132	0.129	0.113	0.0704	0.546	0.546	0.62	0.318	0.548	0.657	0.737		0.399	0.336	0.372	0.3	0.844
H3255	0.789	0.7	0.823	0.578	0.618	0.552	0.659	0.37	0.409	0.339	0.304	0.837	0.786	0.884	0.684	0.554	0.564	0.602	0.503	0.549
NCI-H23	1.06	1.24	1.11	0.356	0.435	0.426	0.223	0.747	0.91	0.832	0.909	0.199	0.259	0.216	0.186	0.34	0.29	0.269	0.182	0.424
NCI-H1755	0.938	0.927	1.04	0.733	0.696	0.849	0.742	0.44	0.486	0.474	0.312	0.46	0.432	0.406	0.445	0.854	0.879	0.822	0.59	0.626
HCC-15	0.999			0.386	0.359	0.405	0.375	0.61	0.532	0.624	0.319	1.49	1.06	1.26	0.964	0.715		0.688	0.597	0.851
NCI-H1915	1.07	0.924	0.953	0.261	0.298	0.336	0.264	0.376	0.298	0.313	0.264	0.75	0.718	0.659	0.493	0.248	0.275	0.212	0.212	0.727
